From patent US20220282217A1, “COMPOSITIONS AND METHODS FOR PREPARING T CELL COMPOSITIONS AND USES THEREOF” (priority 2019, published 2022)
Where two headings read alike, the source gives them in different places. Values belong to the molecule of their own block, whether it stands above or below them. Where a SMILES comes first, the peptide text is derived from it.

Columns and labels:
[1] = tested on: 293T cells transduced with GATA3 neoORF, expressing the HLA of interest; experiment: Presentation of GATA3 neoantigens: HLA-eluted peptides by targeted MS/MS (PRM) (Table 14); type: cell-based, human
Experimental: To assess whether antigens could be processed and presented from the larger polypeptide context, peptides eluted from HLA molecules isolated from cells expressing the genes of interest were analyzed by tandem mass spectrometry (MS/MS).
Between 50 and 700 million of the transduced cells expressing peptides encoded by the GATA3 neoORF sequence were cultured and peptides were eluted from HLA-peptide complexes using an acid wash. Eluted peptides were then analyzed by targeted MS/MS using PRM. Spectral comparison between peptides derived from GATA3 neoORF and corresponding synthetic peptides were performed to confirm each detection.

HLA-A02.01 [2] = molecular target: T1, HLA-A02.01 (Homo sapiens, UniProt P04439, D140Y/D185E/D98H/E176V/E277Q/G131W/G231S/I119V/I121R/I166T/I218V/N151K/N90K/P208A/P217A/Q86G/Q94H/R138H/R169H); experiment: Class I MHC peptide binding stability (pMHC-I dissociation, 125I-labeled light chain); details: allele A02.01
T1 construct: made in house; host or cells: E. coli

HLA-B08.01 [3] = molecular target: T2, HLA-B08.01 (Homo sapiens, UniProt P01889, A93T/A95T/D138N/E176V/E187T/K202T/Q94N/R180D/S35A/V36M/Y33D/Y91F); experiment: as above; details: Allele B08.01
HLA-A03.01 [4] = molecular target: T3, HLA-A03.01 (Homo sapiens, UniProt P04439); experiment: Class I MHC peptide binding affinity (displacement of radiolabeled reference peptide); details: allele A03.01; read-out: Observed Affinity (IC50; (nM))
HLA-A03.01 [5] = molecular target: T3, HLA-A03.01; experiment: Class I MHC peptide binding stability (pMHC-I dissociation, 125I-labeled light chain); set-up: made in house; host or cells: E. coli; details: allele A03.01
HLA-A02.01 [6] = molecular target: HLA-A02.01 (Homo sapiens, UniProt P04439, D140Y/D185E/D98H/E176V/E277Q/G131W/G231S/I119V/I121R/I166T/I218V/L300P/L318F/N151K/N90K/P208A/P217A/Q86G/Q94H/R138H/R169H/T345S); experiment: Class I MHC peptide binding affinity (displacement of radiolabeled reference peptide); details: allele A02.01, (nM))
Procedure, shortened: (§1)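 MHC class I complexes were loaded with a radiolabeled reference peptide, then exposed to test peptides over a range of concentrations for 2 days. Reference peptide still bound to the complexes was quantified by size-exclusion gel filtration.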

HLA-A24.02 [7] = experiment: as above; set-up: species or system human; details: allele A24.02; read-out: Observed Affinity (IC50; (nM))
HLA-B08.01 [8] = molecular target: T2, HLA-B08.01; experiment: as above
Procedure, shortened: as §1

HLA-A24.02 [9] = experiment: Class I MHC peptide binding stability (pMHC-I dissociation, 125I-labeled light chain); set-up: species or system human; details: allele A24.02
HLA-A11.01 = HLA-A11.01 (Homo sapiens, UniProt P04439, A114D/D185E/E176A/F33Y/L180Q/S129P/T187R); experiment: Class I MHC peptide binding affinity (displacement of radiolabeled reference peptide); details: allele A11.01; read-out: Observed Affinity (IC50; (nM))
HLA-B07.02 [10] = molecular target: T4, HLA-B07.02 (Homo sapiens, UniProt P01889); experiment: as above
HLA-B07.02 [11] = molecular target: T4, HLA-B07.02; experiment: Class I MHC peptide binding stability (pMHC-I dissociation, 125I-labeled light chain); set-up: made in house; host or cells: E. coli; details: Allele B07.02
[12] = GATA3 neoORF transduced 293T cells expressing HLA-A*02:01 protein
[13] = read-out: Observed Affinity (IC50

Stability (T1/2 (h)) (HLA-A02.01 [2]): 21.7 h
Compound: CSCC[C@H](NC(=O)[C@@H](N)CO)C(=O)N[C@@H](CC(C)C)C(=O)N[C@H](C(=O)NCC(=O)N1CCC[C@H]1C(=O)N1CCC[C@H]1C(=O)N[C@@H](C)C(=O)N[C@@H](CCCNC(=N)N)C(=O)N[C@H](C(=O)O)C(C)C)[C@@H](C)O
detected by mass spectrometry (peptide eluted from HLA-peptide complexes) [1, 12]: detected

Compound: CC(C)C[C@H](NC(=O)[C@@H]1CCCN1C(=O)[C@H](CS)NC(=O)[C@H](CC(C)C)NC(=O)[C@H](Cc1c[nH]cn1)NC(=O)[C@H](CC(N)=O)NC(=O)CNC(=O)[C@H](CC(C)C)NC(=O)[C@@H](N)CO)C(=O)O
Stability (T1/2 (h)) (HLA-A02.01 [2]): 3.5 h
Stability (T1/2 (h)) (HLA-B08.01 [3]): 0.5 h

IC50 (HLA-A03.01 [4]): 308 nM
Stability (T1/2 (h)) (HLA-A02.01 [2]): 14.3 h
Stability (T1/2 (h)) (HLA-A03.01 [5]): 0.8 h
IC50 (HLA-A02.01 [6]; [13]): 6 nM
Compound: CC(C)C[C@H](NC(=O)[C@H](Cc1ccccc1)NC(=O)[C@H](CO)NC(=O)[C@H](CC(C)C)NC(=O)[C@H](CS)NC(=O)[C@H](CO)NC(=O)[C@H](Cc1ccccc1)NC(=O)[C@H](CC(C)C)NC(=O)[C@@H](N)CCCCN)C(=O)O (H-KLFSCLSFL-OH; N-terminus and C-terminus assumed)

Compound: CC(C)C[C@H](NC(=O)[C@H](CO)NC(=O)[C@H](CCCCN)NC(=O)[C@H](CC(C)C)NC(=O)[C@@H](NC(=O)[C@H](CO)NC(=O)[C@@H]1CCCN1C(=O)[C@H](CC(C)C)NC(=O)[C@@H](N)Cc1ccccc1)[C@@H](C)O)C(=O)O
IC50 (HLA-A24.02 [7]): 995 nM
IC50 (HLA-B08.01 [8]): 1970 nM
IC50 (HLA-A02.01 [6]; Observed Affinity (IC50): 21 nM
Stability (T1/2 (h)) (HLA-A24.02 [9]): 1 h

Compound: CC(C)C[C@H](NC(=O)[C@H](CO)NC(=O)[C@H](CO)NC(=O)[C@H](CCCNC(=N)N)NC(=O)[C@H](CCC(N)=O)NC(=O)[C@H](CC(C)C)NC(=O)[C@@H](NC(=O)[C@H](C)NC(=O)[C@@H](N)Cc1ccccc1)[C@@H](C)O)C(=O)O
detected by mass spectrometry (peptide eluted from HLA-peptide complexes) ([1]; GATA3 neoORF transduced 293T cells expressing HLA-C*03:03 protein): detected

IC50 (HLA-A03.01 [4]): 8.8 nM
IC50 (HLA-A11.01): 9.8 nM
Compound: CC[C@H](C)[C@H](NC(=O)[C@@H](N)CCCCN)C(=O)N[C@@H](CO)C(=O)N[C@@H](CC(N)=O)C(=O)N[C@@H](Cc1c[nH]c2ccccc12)C(=O)N[C@@H](CO)C(=O)N[C@@H](CC(C)C)C(=O)N[C@@H](CCCCN)C(=O)N[C@@H](CCCCN)C(=O)O (H-KISNWSLKK-OH; N-terminus and C-terminus assumed)

Compound: CC[C@H](C)[C@H](NC(=O)[C@H](Cc1ccc(O)cc1)NC(=O)[C@H](CCCCN)NC(=O)CNC(=O)[C@H](CCCNC(=N)N)NC(=O)[C@H](CCCCN)NC(=O)[C@H](Cc1c[nH]cn1)NC(=O)[C@H](CC(C)C)NC(=O)[C@@H](N)Cc1c[nH]c2ccccc12)C(=O)O (H-WLHKRGKYI-OH; N-terminus and C-terminus assumed)
IC50 (HLA-B07.02 [10]): 2650 nM
Stability (T1/2 (h)) (HLA-A02.01 [2]): 1.2 h
Stability (T1/2 (h)) (HLA-B08.01 [3]): 1.3 h
IC50 (HLA-B08.01 [8]): 417 nM
IC50 (HLA-A02.01 [6]; Observed Affinity (IC50): 1250 nM

IC50 (HLA-A02.01 [6]; [13]): 10.6 nM
Compound: CSCC[C@H](N)C(=O)N[C@@H](CC(C)C)C(=O)N[C@H](C(=O)NCC(=O)N1CCC[C@H]1C(=O)N1CCC[C@H]1C(=O)N[C@@H](C)C(=O)N[C@@H](CCCNC(=N)N)C(=O)N[C@H](C(=O)O)C(C)C)[C@@H](C)O (H-MLTGPPARV-OH; N-terminus and C-terminus assumed)
detected by mass spectrometry (peptide eluted from HLA-peptide complexes) [1, 12]: detected

Compound: CSCC[C@H](NC(=O)[C@H](Cc1c[nH]c2ccccc12)NC(=O)[C@H](Cc1c[nH]cn1)NC(=O)[C@H](CC(N)=O)NC(=O)[C@H](CCCNC(=N)N)NC(=O)[C@H](CCCNC(=N)N)NC(=O)[C@H](CCC(N)=O)NC(=O)[C@H](CO)NC(=O)[C@@H]1CCCN1C(=O)[C@@H](N)CC(C)C)C(=O)O
Stability (T1/2 (h)) (HLA-B08.01 [3]): 0.7 h
Stability (T1/2 (h)) (HLA-B07.02 [11]): 6.5 h

Compound: CC(C)C[C@H](NC(=O)[C@H](C)NC(=O)[C@H](CC(C)C)NC(=O)[C@H](Cc1c[nH]cn1)NC(=O)[C@@H]1CCCN1C(=O)[C@H](CCC(=O)O)NC(=O)[C@@H]1CCCN1C(=O)[C@H](CC(C)C)NC(=O)[C@@H](N)C(C)C)C(=O)O [VLPEPHLAL] (H-VLPEPHLAL-OH; N-terminus and C-terminus assumed)
detected by mass spectrometry (peptide eluted from HLA-peptide complexes) [1, 12]: detected
